# Measurements published in US20170071944A1, “MODULATORS OF TOLL-LIKE RECEPTORS FOR THE TREATMENT OF HIV” (Gilead Sciences, Inc., priority 2015, published 2017).
# Tested on: immune cell subsets in PBMC cultures from HIV-1 infected subjects on cART
# Test: Induced immune cell activation in PBMC cultures from HIV-1 infected subjects on cART (flow cytometry)
# Format: cell-based, human
# Details: for B Cells CD69 % / B Cells CD69 Fold vs DMSO / B Cells CD80 % / B Cells CD80 Fold vs DMSO / DCs CD69 % / DCs CD69 Fold vs DMSO / DCs CD80 % / DCs CD80 Fold vs DMSO / CD4+ T Cells CD25 % / CD4+ T Cells CD25 Fold vs DMSO / CD4+ T Cells CD69 % / CD4+ T Cells CD69 Fold vs DMSO / CD4+ T Cells Perforin % / CD4+ T Cells Perforin Fold vs DMSO / CD8+ T Cells CD25 % / CD8+ T Cells CD25 Fold vs DMSO / CD8+ T Cells CD28 % / CD8+ T Cells CD28 Fold vs DMSO / CD8+ T Cells CD38 % / CD8+ T Cells CD38 Fold vs DMSO / CD8+ T Cells CD69 % / CD8+ T Cells CD69 Fold vs DMSO / Monocytes CD11c % / Monocytes CD11c Fold vs DMSO / Monocytes CD69 % / Monocytes CD69 Fold vs DMSO / Monocytes CD80 % / Monocytes CD80 Fold vs DMSO / NK Cells CD25 % / NK Cells CD25 Fold vs DMSO / NK Cells CD69 % / NK Cells CD69 Fold vs DMSO: 2 days, geometric mean; for B Cells CD69 % / B Cells CD69 Fold vs DMSO / B Cells CD80 % / B Cells CD80 Fold vs DMSO / DCs CD69 % / DCs CD69 Fold vs DMSO / DCs CD80 % / DCs CD80 Fold vs DMSO: N = 4; for CD4+ T Cells CD25 % / CD4+ T Cells CD25 Fold vs DMSO / CD4+ T Cells CD69 % / CD4+ T Cells CD69 Fold vs DMSO / CD4+ T Cells Perforin % / CD4+ T Cells Perforin Fold vs DMSO / CD8+ T Cells CD25 % / CD8+ T Cells CD25 Fold vs DMSO / CD8+ T Cells CD28 % / CD8+ T Cells CD28 Fold vs DMSO / CD8+ T Cells CD38 % / CD8+ T Cells CD38 Fold vs DMSO / CD8+ T Cells CD69 % / CD8+ T Cells CD69 Fold vs DMSO / Monocytes CD11c % / Monocytes CD11c Fold vs DMSO / Monocytes CD69 % / Monocytes CD69 Fold vs DMSO / Monocytes CD80 % / Monocytes CD80 Fold vs DMSO / NK Cells CD25 % / NK Cells CD25 Fold vs DMSO / NK Cells CD69 % / NK Cells CD69 Fold vs DMSO: N = 6
# Protocol: TLR8 modulating compound affects activation of distinct cell populations, PBMCs were purified from HIV-1 infected subjects on cART, as described in Example 121 (anonymized participant IDs 184, 185, 188, 189, 190, and 191). […] After incubation, PBMCs were harvested and stained with antibodies conjugated to specific fluorophores (BD Biosciences) to delineate immune cell subsets: CD4 T cells (CD3+ CD4+ CD8-), CD8 T cells (CD3+ CD8+ CD4-), NK cells (CD3-CD56+ CD16+), monocytes (CD3-CD14+), B cells (CD3-CD19+), and peripheral dendritic cells (DCs), defined as positive for HLA-DR and negative for a panel of markers: CD3, CD14, CD16, CD19, CD20, CD56 (Lin-1 lineage panel, BD Biosciences).
# Additional markers of activation, maturation, and effector function were included for cell subsets, as follows: CD4 and CD8 T cells (CD25, CD38, CD69, IFN-γ, granzyme B, perforin, TNF-α), NK cells (CD25, CD69, IFN-γ), monocytes (CD11c, CD16, CD80, CD86, CD163, TNF-α), B cells (CD40, CD69, CD80, CD86), and DC (CD11c, CD69, CD80, CD86, CD123, and CD163). Cells were stained for surface markers (CD3, CD4, CD8, CD11c, CD14, CD16, CD25, CD69, CD80, CD86, CD163), washed, treated with fixation and permeabilization buffer (eBioscience), and stained for intracellular markers (IFN-γ, granzyme B, perforin, TNF-α). Cells were evaluated by flow cytometry on a LSR Fortessa (BD Biosciences), and data was analyzed with FlowJo software (TreeStar).
# Data are expressed as geometric mean percentage (%) and as geometric mean fold-activation (Fold) for each marker and for each PBMC subset obtained from 4 or 6 subjects, as indicated. Fold activation is calculated as a ratio of the % positive for each marker for each PBMC subset at the indicated concentration of the compound of Example 15 relative to % positive for DMSO treated samples. Fold activations that are 1.5 are in bold.
smiles,measurement,setting,value
CCCC[C@H](CO)Nc1nc(N)nc2cccnc12 [Example 15],Perforin in CD8+ T cells with treatment,,did not increase
same,B Cells CD69 %,Example 15 10 nM,10.0%
same,B Cells CD69 Fold vs DMSO,Example 15 10 nM,1.2 fold
same,B Cells CD80 %,Example 15 10 nM,2.6%
same,B Cells CD80 Fold vs DMSO,Example 15 10 nM,1.6 fold
same,DCs CD69 %,Example 15 10 nM,0.3%
same,DCs CD69 Fold vs DMSO,Example 15 10 nM,0.1 fold
same,DCs CD80 %,Example 15 10 nM,49.8%
same,DCs CD80 Fold vs DMSO,Example 15 10 nM,1.8 fold
same,CD4+ T Cells CD25 %,Example 15 10 nM,1.5%
same,CD4+ T Cells CD25 Fold vs DMSO,Example 15 10 nM,0.6 fold
same,CD4+ T Cells CD69 %,Example 15 10 nM,5.7%
same,CD4+ T Cells CD69 Fold vs DMSO,Example 15 10 nM,0.7 fold
same,CD4+ T Cells Perforin %,Example 15 10 nM,11.8%
same,CD4+ T Cells Perforin Fold vs DMSO,Example 15 10 nM,1.5 fold
same,CD8+ T Cells CD25 %,Example 15 10 nM,0.2%
same,CD8+ T Cells CD25 Fold vs DMSO,Example 15 10 nM,0.6 fold
same,CD8+ T Cells CD28 %,Example 15 10 nM,0.1%
same,CD8+ T Cells CD28 Fold vs DMSO,Example 15 10 nM,0.9 fold
same,CD8+ T Cells CD38 %,Example 15 10 nM,25.3%
same,CD8+ T Cells CD38 Fold vs DMSO,Example 15 10 nM,0.9 fold
same,CD8+ T Cells CD69 %,Example 15 10 nM,3.7%
same,CD8+ T Cells CD69 Fold vs DMSO,Example 15 10 nM,0.8 fold
same,Monocytes CD11c %,Example 15 10 nM,0.4%
same,Monocytes CD11c Fold vs DMSO,Example 15 10 nM,0.6 fold
same,Monocytes CD69 %,Example 15 10 nM,0.8%
same,Monocytes CD69 Fold vs DMSO,Example 15 10 nM,0.3 fold
same,Monocytes CD80 %,Example 15 10 nM,33.0%
same,Monocytes CD80 Fold vs DMSO,Example 15 10 nM,1.1 fold
same,NK Cells CD25 %,Example 15 10 nM,0.2%
same,NK Cells CD25 Fold vs DMSO,Example 15 10 nM,0.4 fold
same,NK Cells CD69 %,Example 15 10 nM,0.8%
same,NK Cells CD69 Fold vs DMSO,Example 15 10 nM,0.4 fold
same,B Cells CD69 %,Example 15 100 nM,3.9%
same,B Cells CD69 Fold vs DMSO,Example 15 100 nM,0.5 fold
same,B Cells CD80 %,Example 15 100 nM,1.7%
same,B Cells CD80 Fold vs DMSO,Example 15 100 nM,1.1 fold
same,DCs CD69 %,Example 15 100 nM,1.0%
same,DCs CD69 Fold vs DMSO,Example 15 100 nM,0.4 fold
same,DCs CD80 %,Example 15 100 nM,67.2%
same,DCs CD80 Fold vs DMSO,Example 15 100 nM,2.4 fold
same,CD4+ T Cells CD25 %,Example 15 100 nM,3.9%
same,CD4+ T Cells CD25 Fold vs DMSO,Example 15 100 nM,1.7 fold
same,CD4+ T Cells CD69 %,Example 15 100 nM,7.7%
same,CD4+ T Cells CD69 Fold vs DMSO,Example 15 100 nM,1.0 fold
same,CD4+ T Cells Perforin %,Example 15 100 nM,10.4%
same,CD4+ T Cells Perforin Fold vs DMSO,Example 15 100 nM,1.3 fold
same,CD8+ T Cells CD25 %,Example 15 100 nM,0.3%
same,CD8+ T Cells CD25 Fold vs DMSO,Example 15 100 nM,1.0 fold
same,CD8+ T Cells CD28 %,Example 15 100 nM,0.1%
same,CD8+ T Cells CD28 Fold vs DMSO,Example 15 100 nM,1.1 fold
same,CD8+ T Cells CD38 %,Example 15 100 nM,29.2%
same,CD8+ T Cells CD38 Fold vs DMSO,Example 15 100 nM,1.0 fold
same,CD8+ T Cells CD69 %,Example 15 100 nM,3.4%
same,CD8+ T Cells CD69 Fold vs DMSO,Example 15 100 nM,0.7 fold
same,Monocytes CD11c %,Example 15 100 nM,3.6%
same,Monocytes CD11c Fold vs DMSO,Example 15 100 nM,5.2 fold
same,Monocytes CD69 %,Example 15 100 nM,1.8%
same,Monocytes CD69 Fold vs DMSO,Example 15 100 nM,0.6 fold
same,Monocytes CD80 %,Example 15 100 nM,47.7%
same,Monocytes CD80 Fold vs DMSO,Example 15 100 nM,1.6 fold
same,NK Cells CD25 %,Example 15 100 nM,0.8%
same,NK Cells CD25 Fold vs DMSO,Example 15 100 nM,1.6 fold
same,NK Cells CD69 %,Example 15 100 nM,1.1%
same,NK Cells CD69 Fold vs DMSO,Example 15 100 nM,0.6 fold
